Laboratory results reported in patent US9115127B2 (AMGEN INC., priority 2010, dated 2015).
Structures can show the parent of a compound that is named as a salt.

These compounds were tested against T1, wild-type human ALK (cytoplasmic domain, amino acids 1058-1620, N-terminal GST fusion) (Homo sapiens, UniProt Q9UM73) (assay: ALK Inhibition in Enzyme Assay (Lance TR-FRET kinase assay)).
T1 construct: The cytoplasmic domain (amino acids 1058-1620) of wild-type human ALK; GST (N); made in house; host or cells: SF9 insect cells
Format: biochemical
Method: ALK Inhibition in Enzyme Assay
Kinase activity of the purified protein was assessed using a Lance® TR-FRET assay. […] The reaction was allowed to proceed for 90 minutes at room temperature and was then terminated with 20 mM EDTA in 50 mM Tris (pH 7.5), 100 mM NaCl, 0.05% BSA, and 0.1% Tween-20. Phosphorylation of the peptide substrate was detected using the Lance® detection reagents streptavidin-allophycocyanin (SA-APC) and Eu-W1024 anti-phosphotyrosine antibody (PT66) from Perkin Elmer Life Sciences (Waltham, Mass.). The plates were read on a RUBY star plate reader (BMG LABTECH, Cary, N.C.) with an excitation wavelength of 320 nm.

T1 sequence (Q9UM73 1058-1620): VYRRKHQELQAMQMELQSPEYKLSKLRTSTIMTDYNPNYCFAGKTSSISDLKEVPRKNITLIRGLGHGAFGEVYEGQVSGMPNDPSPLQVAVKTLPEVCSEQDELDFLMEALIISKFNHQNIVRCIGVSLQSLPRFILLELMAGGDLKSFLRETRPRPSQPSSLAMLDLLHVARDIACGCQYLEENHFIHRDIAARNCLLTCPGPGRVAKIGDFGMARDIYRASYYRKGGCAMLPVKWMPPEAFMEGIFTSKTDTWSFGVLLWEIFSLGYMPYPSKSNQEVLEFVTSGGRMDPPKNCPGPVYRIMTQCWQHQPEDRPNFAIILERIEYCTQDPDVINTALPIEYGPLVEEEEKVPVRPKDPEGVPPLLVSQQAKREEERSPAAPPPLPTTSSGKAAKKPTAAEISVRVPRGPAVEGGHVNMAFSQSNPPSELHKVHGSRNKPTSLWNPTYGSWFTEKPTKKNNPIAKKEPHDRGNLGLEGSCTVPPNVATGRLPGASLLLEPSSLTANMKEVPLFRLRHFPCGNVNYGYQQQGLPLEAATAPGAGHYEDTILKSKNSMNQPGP

Row | SMILES | IC50 [nM]
1 | CC(C)NC[C@H]1CC[C@@H](n2/c(=N/C(=O)c3ccc(F)cc3)[nH]c3ccc(CN4CCCCC4)cc32)CC1 [Example 36, (E)-4-Fluoro-N-(1-(cis-4-((isopropylamino)methyl)cyclohexyl)-6-(piperidin-1-ylmethyl)-1H-benzo[d]imidazol-2(3H)-ylidene)benzamide] | 100 to 1000
2 | O=C(/N=c1\[nH]c2ccc(CN3CCCCC3)cc2n1[C@H]1CC[C@@H](CO)CC1)c1ccc(F)cc1 [Example 37, (E)-4-Fluoro-N-(1-(cis-4-(hydroxymethyl)cyclohexyl)-6-(piperidin-1-ylmethyl)-1H-benzo[d]imidazol-2(3H)-ylidene)benzamide] | 100 to 1000
3 | C=CCNS(=O)(=O)c1cc(C(=O)/N=c2\[nH]c3ccc(CN4CCCCC4)cc3n2[C@H]2CC[C@@H](C(N)=O)CC2)ccc1F [Example 38, (E)-3-(N-Allylsulfamoyl)-N-(1-(cis-4-carbamoylcyclohexyl)-6-(piperidin-1-ylmethyl)-1H-benzo[d]imidazol-2(3H)-ylidene)-4-fluorobenzamide] | < 50
4 | O=C(/N=c1\[nH]c2ccc(CN3CCCCC3)cc2n1[C@H]1CC[C@@H](C(=O)NCC(F)(F)F)CC1)c1ccc(F)cc1 [Example 39, (E)-4-Fluoro-N-(6-(piperidin-1-ylmethyl)-1-(cis-4-(2,2,2-trifluoroethylcarbamoyl)cyclohexyl)-1H-benzo[d]imidazol-2(3H)-ylidene)benzamide] | < 50
5 | CC(C)CCNC(=O)[C@H]1CC[C@@H](n2/c(=N/C(=O)c3ccc(F)cc3)[nH]c3ccc(CN4CCCCC4)cc32)CC1 [Example 40, (E)-4-Fluoro-N-(1-(cis-4-(isopentylcarbamoyl)cyclohexyl)-6-(piperidin-1-ylmethyl)-1H-benzo[d]imidazol-2(3H)-ylidene)benzamide] | 50 to 100
6 | CC(C)NC(=O)[C@H]1CC[C@@H](n2/c(=N/C(=O)c3ccc(F)cc3)[nH]c3ccc(CN4CCOCC4)cc32)CC1 [Example 41, (E)-4-Fluoro-N-(1-(cis-4-(isopropylcarbamoyl)cyclohexyl)-6-(morpholinomethyl)-1H-benzo[d]imidazol-2(3H)-ylidene)benzamide] | < 50
7 | O=C(/N=c1\[nH]c2ccc(CN3CCOCC3)cc2n1[C@H]1CC[C@@H](C(=O)O)CC1)c1ccc(F)cc1 [Example 42, cis-4-((E)-2-(4-Fluorobenzoylimino)-6-(morpholinomethyl)-2,3-dihydro-1H-benzo[d]imidazol-1-yl)cyclohexanecarboxylic acid] | 1000 to 5000
8 | COC(=O)[C@H]1CC[C@@H](n2/c(=N/C(=O)c3ccc(F)cc3)[nH]c3cnc(OCCN4CCCCC4)cc32)CC1 [Example 44, cis-Methyl 4-((E)-2-(4-fluorobenzoylimino)-6-(2-(piperidin-1-yl)ethoxy)-2,3-dihydro-1H-imidazo[4,5-c]pyridin-1-yl)cyclohexanecarboxylate] | < 50
9 | CC(C)NC(=O)[C@H]1CC[C@@H](n2/c(=N/C(=O)c3ccc(F)cc3)[nH]c3cnc(OCCN4CCCCC4)cc32)CC1 [Example 45, (E)-4-Fluoro-N-(1-(cis-4-(isopropylcarbamoyl)cyclohexyl)-6-(2-(piperidin-1-yl)ethoxy)-1H-imidazo[4,5-c]pyridin-2(3H)-ylidene)benzamide] | < 50
10 | CC(C)N(C)C(=O)[C@H]1CC[C@@H](n2/c(=N/C(=O)c3ccc(F)cc3)[nH]c3ccc(CN4CCCCC4)cc32)CC1 [Example 46, (E)-4-Fluoro-N-(1-(cis-4-(isopropyl(methyl)carbamoyl)cyclohexyl)-6-(piperidin-1-ylmethyl)-1H-benzo[d]imidazol-2(3H)-ylidene)benzamide] | < 50
11 | O=C(/N=c1\[nH]c2ccc(CN3CCCCC3)cc2n1[C@H]1CC[C@@H](C(=O)N2CCNCC2)CC1)c1ccc(F)cc1 [Example 47, (E)-4-Fluoro-N-(1-(cis-4-(piperazine-1-carbonyl)cyclohexyl)-6-(piperidin-1-ylmethyl)-1H-benzo[d]imidazol-2(3H)-ylidene)benzamide] | < 50

Now from value to compound:

Row | IC50 [nM] | SMILES
12 | < 50 | CC(C)NC(=O)[C@H]1CC[C@@H](n2/c(=N/C(=O)c3ccc(F)cc3)[nH]c3ccc(CN4CCC(CC(=O)O)CC4)cc32)CC1 [Example 48, 2-(1-(((E)-2-(4-Fluorobenzoylimino)-3-(cis-4-(isopropylcarbamoyl)cyclohexyl)-2,3-dihydro-1H-benzo[d]imidazol-5-yl)methyl)piperidin-4-yl)acetic acid]
13 | 50 to 100 | O=C(/N=c1\[nH]c2ccc(CN3CCCCC3)cc2n1[C@H]1CC[C@@H](C(=O)Nc2nccs2)CC1)c1ccc(F)cc1 [Example 49, (E)-4-Fluoro-N-(6-(piperidin-1-ylmethyl)-1-(cis-4-(thiazol-2-ylcarbamoyl)cyclohexyl)-1H-benzo[d]imidazol-2(3H)-ylidene)benzamide]
14 | < 50 | CC(C)NC(=O)[C@H]1CC[C@@H](n2/c(=N/C(=O)c3ccc(F)cc3)[nH]c3cnc(OCCN4CCOCC4)cc32)CC1 [Example 51, (E)-4-Fluoro-N-(1-(cis-4-(isopropylcarbamoyl)cyclohexyl)-6-(2-morpholinoethoxy)-1H-imidazo[4,5-c]pyridin-2(3H)-ylidene)benzamide]
15 | < 50 | CC(C)NC(=O)[C@H]1CC[C@@H](n2/c(=N/C(=O)c3ccc(F)cc3)[nH]c3ccc(CN4CCC[C@@H]4C(=O)O)cc32)CC1 [Example 53, (R)-1-(((E)-2-(4-Fluorobenzoylimino)-3-(cis-4-(isopropylcarbamoyl)cyclohexyl)-2,3-dihydro-1H-benzo[d]imidazol-5-yl)methyl)pyrrolidine-2-carboxylic acid hydrochloride]
16 | < 50 | CC(C)NC(=O)[C@H]1CC[C@@H](n2/c(=N/C(=O)c3ccc(F)cc3)[nH]c3ccc(CN4CCC[C@H]4C(=O)O)cc32)CC1 [Example 54, (S)-1-(((E)-2-(4-Fluorobenzoylimino)-3-(cis-4-(isopropylcarbamoyl)cyclohexyl)-2,3-dihydro-1H-benzo[d]imidazol-5-yl)methyl)pyrrolidine-2-carboxylic acid hydrochloride]
17 | 100 to 1000 | C[C@@H]1CN(C(=O)OC(C)(C)C)CCN1C(=O)[C@H]1CC[C@@H](n2/c(=N/C(=O)c3ccc(F)cc3)[nH]c3cnc(OCCN4CCCCC4)cc32)CC1 [Example 56, (R)-tert-Butyl 4-(cis-4-((E)-2-(4-fluorobenzoylimino)-6-(2-(piperidin-1-yl)ethoxy)-2,3-dihydro-1H-imidazo[4,5-c]pyridin-1-yl)cyclohexanecarbonyl)-3-methylpiperazine-1-carboxylate]
18 | < 50 | C[C@@H]1CN(C(=O)OC(C)(C)C)CCN1C(=O)[C@H]1CC[C@@H](n2/c(=N/C(=O)c3ccc(C#N)cc3)[nH]c3cnc(OCCN4CCCCC4)cc32)CC1 [Example 57, (R)-tert-Butyl 4-(cis-4-((E)-2-(4-cyanobenzoylimino)-6-(2-(piperidin-1-yl)ethoxy)-2,3-dihydro-1H-imidazo[4,5-c]pyridin-1-yl)cyclohexanecarbonyl)-3-methylpiperazine-1-carboxylate]
19 | < 50 | C[C@@H]1CNCCN1C(=O)[C@H]1CC[C@@H](n2/c(=N/C(=O)c3ccc(C#N)cc3)[nH]c3cnc(OCCN4CCCCC4)cc32)CC1 [Example 58, (E)-4-Cyano-N-(1-(cis-4-((R)-2-methylpiperazine-1-carbonyl)cyclohexyl)-6-(2-(piperidin-1-yl)ethoxy)-1H-imidazo[4,5-c]pyridin-2(3H)-ylidene)benzamide]
